The term pIC50 denotes −log10 of the IC50, conventionally taken in molar units. Low readings indicate a high IC50, high ones a low IC50.

The structures appear in SMILES notation. pIC50: −log10 of the molar value. A value given as a limit tells only on which side of the number the result lay.

Here are results for 25 compounds from patent US8084479B2, “Thiazole compounds and methods of use” (Amgen Inc., priority 2006, dated 2011).

PKBα, sequence (P31749 118-480 limits assumed): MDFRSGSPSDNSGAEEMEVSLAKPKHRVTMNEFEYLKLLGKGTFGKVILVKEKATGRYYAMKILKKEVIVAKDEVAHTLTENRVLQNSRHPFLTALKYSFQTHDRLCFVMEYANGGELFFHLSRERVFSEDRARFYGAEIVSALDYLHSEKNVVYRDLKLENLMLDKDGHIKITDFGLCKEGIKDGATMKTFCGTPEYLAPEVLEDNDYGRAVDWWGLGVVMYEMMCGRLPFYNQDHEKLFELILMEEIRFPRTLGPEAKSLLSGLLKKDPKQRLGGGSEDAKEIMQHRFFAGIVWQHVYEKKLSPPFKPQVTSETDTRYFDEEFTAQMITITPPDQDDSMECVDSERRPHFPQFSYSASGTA

The target of this assay is PKBα (Homo sapiens, UniProt P31749). Nature of the assay: PKB kinase assay (P33-labeled ATP, peptide substrate, filter plate). Format: biochemical. The following applies: PKBα enzyme (full length or kinase domain with pleckstrin domain deleted). From the text:
The kinase assay for evaluating PKB activity comprises active PKB enzymes, a PKB specific substrate, and P^33-labeled ATP. […] The phosphorylated substrate was captured by a phosphocellulose membrane filter plate (MLLIPORE) and measured by a Wallac Microbeta liquid scintillation counter (Perkin Elmer).
Compound `N[C@H](CNc1ncc(-c2ccc3c(c2)CC(=O)N3)s1)Cc1ccc(OCCCCl)cc1` [Example 94, 5-(2-((S)-2-Amino-3-(4-(3-chloropropoxy)phenyl)propylamino)thiazol-5-yl)indolin-2-one] showed a pIC50 of 5.00 to 6.00.

The compound `N[C@H](CNc1ncc(-c2ccc3c(c2)CC(=O)N3)s1)Cc1ccc(OCCCO)cc1` [Example 95, 5-(2-((S)-2-Amino-3-(4-(3-hydroxypropoxy)phenyl)propylamino)-thiazol-5-yl)indolin-2-one] had a negative-log IC50 (pIC50) of 5.00 to 6.00.

On to `COCc1nc(NC[C@@H](N)Cc2ccc(Cl)c(Cl)c2)sc1-c1nc2ccncc2s1` [Example 96, N—((S)-2-Amino-3-(3,4-dichlorophenyl)propyl)-4-(methoxymethyl)-5-(thiazolo[5,4-c]pyridin-2-yl)thiazol-2-amine], for which the negative logarithm of the IC50 (pIC50) was above 7.30.

Compound `N[C@H](CNc1ncc(-c2nc3ccncc3s2)s1)Cc1ccc(Cl)c(Cl)c1` [Example 97, N—((S)-2-Amino-3-(3,4-dichlorophenyl)propyl)-5-(thiazolo[5,4-c]pyridin-2-yl)thiazol-2-amine] gave a pIC50 of 6.00 to 7.30.

Consider `COc1ccc(C[C@H](N)CNc2ncc(-c3nc4ccncc4s3)s2)cc1` [Example 98, N—((S)-2-Amino-3-(4-methoxyphenyl)propyl)-5-(thiazolo[5,4-c]pyridin-2-yl)thiazol-2-amine], for which the pIC50 is 6.00 to 7.30.

Consider `N[C@H](CNc1ncc(-c2nc3ccncc3s2)s1)Cc1ccc(Cl)cc1` [Example 99, N—((S)-2-Amino-3-(4-chlorophenyl)propyl)-5-(thiazolo[5,4-c]pyridin-2-yl)thiazol-2-amine], for which the negative-log IC50 (pIC50) is above 7.30.

The compound `N[C@H](CNc1nc(-c2cccc(F)c2F)c(-c2ccc3cnccc3c2)s1)Cc1ccc(C(F)(F)F)cc1` [Example 100, N—((S)-2-Amino-3-(4-(trifluoromethyl)phenyl)propyl)-4-(2,3-difluorophenyl)-5-(isoquinolin-6-yl)thiazol-2-amine] had a pIC50 of 6.00 to 7.30.

In the case of `N[C@H](CNc1nc(-c2ccc(F)c(F)c2)c(-c2ccc3cnccc3c2)s1)Cc1ccc(C(F)(F)F)cc1` [Example 101, N—((S)-2-Amino-3-(4-(trifluoromethyl)phenyl)propyl)-4-(3,4-difluorophenyl)-5-(isoquinolin-6-yl)thiazol-2-amine], the negative-log IC50 (pIC50) is 6.00 to 7.30.

Regarding `N[C@H](CNc1nc(-c2ccc(F)cc2)c(-c2ccc3cnccc3c2)s1)Cc1ccc(C(F)(F)F)cc1` [Example 102, N—((S)-2-Amino-3-(4-(trifluoromethyl)phenyl)propyl)-4-(4-fluorophenyl)-5-(isoquinolin-6-yl)thiazol-2-amine], the negative-log IC50 (pIC50) was 6.00 to 7.30.

`N[C@H](CNc1nc(-c2cccc(F)c2)c(-c2ccc3cnccc3c2)s1)Cc1ccc(C(F)(F)F)cc1` [Example 103, N—((S)-2-amino-3-(4-(trifluoromethyl)phenyl)propyl)-4-(3-fluorophenyl)-5-(isoquinolin-6-yl)thiazol-2-amine] showed a pIC50 of 6.00 to 7.30.

`N[C@H](CNc1nc(-c2cccnc2)c(-c2ccc3cnccc3c2)s1)Cc1ccc(C(F)(F)F)cc1` [Example 104, N—((S)-2-Amino-3-(4-(trifluoromethyl)phenyl)propyl)-5-(isoquinolin-6-yl)-4-(pyridin-3-yl)thiazol-2-amine] had a negative-log IC50 (pIC50) of 6.00 to 7.30.

Compound `N[C@H](CNc1nc(-c2ccccc2F)c(-c2ccc3cnccc3c2)s1)Cc1ccc(C(F)(F)F)cc1` [Example 105, N—((S)-2-Amino-3-(4-(trifluoromethyl)phenyl)propyl)-4-(2-fluorophenyl)-5-(isoquinolin-6-yl)thiazol-2-amine] had a pIC50 above 7.30.

For `N[C@H](CNc1nc(-c2ccccc2F)c(-c2ccc3cnccc3c2)s1)Cc1ccc(F)cc1` [Example 106, N—((S)-2-Amino-3-(4-fluorophenyl)propyl)-4-(2-fluorophenyl)-5-(isoquinolin-6-yl)thiazol-2-amine], the pIC50 is 6.00 to 7.30.

The compound `N[C@H](CNc1nc(-c2ccccc2F)c(-c2ccc3c(c2)CC(=O)N3)s1)Cc1ccc(C(F)(F)F)cc1` [Example 107, 5-(2-((S)-2-Amino-3-(4-(trifluoromethyl)phenyl)-propylamino)-4-(2-fluorophenyl)thiazol-5-yl)indolin-2-one] gave a pIC50 of 5.00 to 6.00.

`N[C@H](CNc1ncc(-c2cc3ccncc3s2)s1)Cc1ccc(C(F)(F)F)cc1` [Example 108, N—((S)-2-amino-3-(4-(trifluoromethyl)phenyl)propyl)-5-(thieno[2,3-c]pyridin-2-yl)thiazol-2-amine]: the negative-log IC50 (pIC50) was above 7.30.

On to `C[C@@H](c1ccc(C(F)(F)F)cc1)[C@H](N)CNc1ncc(-c2ccc3[nH]c(=O)oc3c2)s1` [Example 109, 6-(2-((2S,3S)-2-Amino-3-(4-(trifluoromethyl)phenyl)butylamino)-thiazol-5-yl)benzo[d]oxazol-2(3H)-one], for which the negative logarithm of the IC50 (pIC50) is above 7.30.

On to `C[C@@H](c1ccc(C(F)(F)F)cc1)[C@H](N)CNc1ncc(-c2ccc3cnccc3c2)s1` [Example 110, N-((2S,3S)-2-Amino-3-(4-(trifluoromethyl)phenyl)butyl)-5-(isoquinolin-6-yl)thiazol-2-amine], for which the negative logarithm of the IC50 (pIC50) is above 7.30.

Consider `N[C@H](CNc1nc(Br)c(-c2nc3ccncc3s2)s1)Cc1ccc(C(F)(F)F)cc1` [Example 111, N—((S)-2-Amino-3-(4-(trifluoromethyl)phenyl)propyl)-4-bromo-5-(thiazolo[5,4-c]pyridin-2-yl)thiazol-2-amine], for which the pIC50 is 6.00 to 7.30.

For `N[C@H](CNc1ncc(-c2cc3oc(=O)[nH]c3cc2F)s1)Cc1ccc(C(F)(F)F)cc1` [Example 112, 6-(2-((S)-2-Amino-3-(4-(trifluoromethyl)phenyl)propylamino)thiazol-5-yl)-5-fluorobenzo[d]oxazol-2(3H)-one], the pIC50 is above 7.30.

`N[C@H](CNc1ncc(-c2ccc3c(c2)CC(=O)N3)s1)Cc1ccc(Cl)cc1Cl` [Example 113, 5-(2-((S)-2-Amino-3-(2,4-dichlorophenyl)propylamino)thiazol-5-yl)indolin-2-one] had a pIC50 of 6.00 to 7.30.

With `N[C@H](CNc1ncc(-c2ccc3c(c2)CC(=O)N3)s1)Cc1ccc(Cl)c(Cl)c1` [Example 114, 5-(2-((S)-2-Amino-3-(3,4-dichlorophenyl)propylamino)thiazol-5-yl)indolin-2-one], the pIC50 is above 7.30.

Compound `N[C@H](CNc1ncc(-c2ccc3[nH]c(=O)oc3c2)s1)Cc1ccc(Cl)c(Cl)c1` [Example 115, 6-(2-((S)-2-Amino-3-(3,4-dichlorophenyl)propylamino)thiazol-5-yl)benzo[d]oxazol-2(3H)-one] showed a pIC50 above 7.30.

The compound `Cc1ccc(C[C@H](N)CNc2ncc(-c3ccc4c(c3)CC(=O)N4)s2)cc1` [Example 116, 5-(2-((S)-2-Amino-3-p-tolylpropylamino)thiazol-5-yl)indolin-2-one] showed a negative logarithm of the IC50 (pIC50) of 6.00 to 7.30.

In the case of `COC(=O)c1nc(NC[C@@H](N)Cc2ccc(C(F)(F)F)cc2)sc1-c1ccc2cnccc2c1` [Example 117, Methyl 2-((S)-2-amino-3-(4-(trifluoromethyl)phenyl)-propylamino)-5-(isoquinolin-6-yl)thiazole-4-carboxylate], the negative logarithm of the IC50 (pIC50) was above 7.30.

Turning to `N[C@H](CNc1nc(-c2cnco2)c(-c2ccc3cnccc3c2)s1)Cc1ccc(C(F)(F)F)cc1` [Example 118, N—((S)-2-Amino-3-(4-(trifluoromethyl)phenyl)propyl)-5-(isoquinolin-6-yl)-4-(oxazol-5-yl)thiazol-2-amine], the negative logarithm of the IC50 (pIC50) was 6.00 to 7.30.
